Measured values from paper PMC7982526, “Discovery of New α-Glucosidase Inhibitors: Structure-Based Virtual Screening and Biological Evaluation” (Frontiers in Chemistry, 2021).

What was measured:
[1] = target: T1, α-Glucosidase (Sigma, G5003) derived from baker's yeast (Saccharomyces cerevisiae, UniProt P53341); test: biochemical; format: biochemical; conditions: for inhibition ratio against α-glycosidase: at 100 μM; for IC50: mean ± SD of three independent experiments, six concentrations, 37°C, pH 6.8, read-out: IC50 against α-glycosidase
T1 construct: purchased Sigma-Aldrich G5003
Protocol: The α-glucosidase inhibitory evaluation of the purchased 52 compounds was performed according to the previously described protocol ([Tang et al., 2014]; [Ye et al., 2019]). α-Glucosidase (Sigma, G5003) derived from baker’s yeast, and pNPG (Sigma, N1377) and the substrate were both purchased from Sigma-Aldrich. […] The compounds and α-glucosidase were preincubated in phosphate buffer (37°C, 15 min). Then, 25 μL substrate buffer was added to the system to start the reaction, and the incubation was continued at 37°C for 15 min. Finally, the reaction was terminated by the addition of 50 μL 0.2 M reaction termination solution. The optical density (OD) was measured at an absorbance wavelength of 405 nm using a microplate reader (Tecan, Switzerland). The IC50 values were estimated with six different concentrations, and each sample was measured three times in parallel experiments.

[2] = target: T2, α-glucosidase (Saccharomyces cerevisiae, UniProt P53341); test: Kinetic assay, Lineweaver-Burk plot analysis; format: biochemical; conditions: for inhibition type: Lineweaver-Burk plot analysis; for Ki: Lineweaver-Burk plot, substrate pNPG, secondary plot of slopes, read-out: estimated Ki
T2 construct: purchased Sigma-Aldrich G5003
Protocol: The inhibition type of the inhibitors against α-glucosidase activities was evaluated based on a described method ([Hou et al., 2009]). Increasing concentrations of substrates pNPG were used in the absence or presence of tested compounds at four different concentrations around the IC50 values. The inhibitory kinetics of the investigated compounds on α-glucosidase was analyzed using the Lineweaver–Burk plot of the substrate concentration and velocity.

[3] = target: T2, α-glucosidase; test: Fluorescence quenching experiment; format: binding, baker's yeast; conditions: increasing concentration of compound, 30 min, 37°C, excitation 290 nm
Protocol: According to the previously reported method ([Aguilar-Moncayo et al., 2010]), all fluorescence spectra were measured on a fluorescence spectrophotometer (Agilent Cary Eclipse) equipped with a 10.0-mm quartz cell and a thermostat bath. In the fluorescence spectrophotometer, α-glucosidase (1 U/ml) was pretreated with certain concentrations of inhibitors for 30 min at 37°C. 100 μL of the above solution (pH 6.8) was added accurately to the quartz cell. The blank was used for buffer spectrum values. The fluorescence emission spectra were measured at 37°C. The excitation wavelength was 290 nm, and the emission spectrum was recorded from 320 to 500 nm.

[4] = Cell viability assay (MTT); format: cell-based; conditions: human, LO2 cells (normal hepatocyte cell line), 48 h treatment, read-out: IC50 toward LO2 cells (cytotoxicity)
Protocol: The LO2 cell line was cultured in a proper medium supplemented with 10% fetal bovine serum in a humidified atmosphere of 5% CO2 at 37°C. Cell suspensions were plated in 96-well plates at a density of 2 × 10^4 […]. Compounds were solubilized in DMSO at six different concentrations. After incubation for 24 h, the cells were treated with various concentrations of tested substances for 48 h and then incubated with 100 μL of MTT at 37°C for 2 h. The formazan dye product was measured by the absorbance at 490 nm on a Tecan Spark multimode microplate reader (Switzerland).

T2 sequence (P53341 whole entry): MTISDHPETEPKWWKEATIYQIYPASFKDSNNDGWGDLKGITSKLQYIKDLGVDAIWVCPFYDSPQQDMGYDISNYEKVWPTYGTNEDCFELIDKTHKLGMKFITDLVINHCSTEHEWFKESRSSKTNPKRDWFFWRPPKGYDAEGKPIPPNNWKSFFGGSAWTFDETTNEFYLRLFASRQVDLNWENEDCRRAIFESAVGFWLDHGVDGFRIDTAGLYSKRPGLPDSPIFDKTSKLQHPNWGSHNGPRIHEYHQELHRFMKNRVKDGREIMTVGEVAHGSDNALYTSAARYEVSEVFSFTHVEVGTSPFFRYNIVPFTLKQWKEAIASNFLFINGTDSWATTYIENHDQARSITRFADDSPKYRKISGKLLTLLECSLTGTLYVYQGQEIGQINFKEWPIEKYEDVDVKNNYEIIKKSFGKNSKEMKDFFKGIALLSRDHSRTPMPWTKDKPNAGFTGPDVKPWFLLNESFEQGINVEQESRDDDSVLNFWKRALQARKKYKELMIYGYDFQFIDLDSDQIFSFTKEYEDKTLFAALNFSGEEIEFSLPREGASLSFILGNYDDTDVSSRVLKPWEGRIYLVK
T1 sequence (P53341 whole entry): as above

Structure (SMILES) | inhibition ratio against α-glycosidase [1] | IC50 [1] [µM] | inhibition type [2] | Ki [2] [µM] | fluorescence quenching of α-glycosidase [3] | IC50 at 48 h [4] [µM]
Cc1cccc(-c2cc3ncn(CC(=O)NC(=O)Nc4ccccc4)c(=O)c3s2)c1 [compound 7] | above 50% | 17.4 ± 1.32 | noncompetitive | 24.2 | gradually quenched in a type of concentration-dependent manner | > 100
CSc1nc(N)nc(SCC(=O)c2ccc3c(c2)OCO3)c1C#N [compound 22] | above 50% | 35.2 ± 2.14 | noncompetitive | 11.3 | gradually quenched in a type of concentration-dependent manner | > 100
O=C(Nc1ccccc1C(=O)NCc1ccco1)c1ccc(F)cc1 [compound 37] | above 50% | 31.3 ± 3.11 | noncompetitive | 11.3 | gradually quenched in a type of concentration-dependent manner | > 100
COc1ccc(-c2c(C#N)c(SCc3nc4ccccc4[nH]3)nc(C)c2C(C)=O)cc1 [compound 44] | above 50% | 9.99 ± 0.43 | noncompetitive | 15.4 | gradually quenched in a type of concentration-dependent manner | > 100
